Data from ChEMBL document CHEMBL1135235, “Structure-activity relationships of oxime neurokinin antagonists: oxime modifications” (Bioorg Med Chem Lett, 2002).

Experiments:
[1] = Area under curve was determined at a dose 30 mpk administered orally.; assay type: ADME, organism-based; settings: rat, in vivo, po, 30 mg/kg
Substance-K receptor = target: T1, Substance-K receptor (Homo sapiens, UniProt P21452); test: (§1) Binding affinity against recombinant human tachykinin receptor 2 in CHO cells using [3H]NKA as a radioligand; assay type: cell-based
T1 sequence (P21452 whole entry): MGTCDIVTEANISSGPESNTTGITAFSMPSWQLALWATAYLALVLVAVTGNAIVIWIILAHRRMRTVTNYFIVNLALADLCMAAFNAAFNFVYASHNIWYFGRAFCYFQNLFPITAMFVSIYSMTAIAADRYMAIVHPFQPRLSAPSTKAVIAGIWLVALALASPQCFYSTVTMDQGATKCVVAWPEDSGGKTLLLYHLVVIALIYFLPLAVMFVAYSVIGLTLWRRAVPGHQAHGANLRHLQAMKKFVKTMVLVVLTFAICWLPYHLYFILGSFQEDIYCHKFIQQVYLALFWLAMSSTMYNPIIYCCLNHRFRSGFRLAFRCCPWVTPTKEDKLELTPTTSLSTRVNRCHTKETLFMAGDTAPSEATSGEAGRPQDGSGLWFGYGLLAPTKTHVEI

[2] = target: T2, Substance-K receptor (Cavia porcellus) (UniProt Q64077); test: Inhibitory activity against Tachykinin receptor 2 evaluated as beta-ala-NKA (410) induced bronchospasm inhibition after a oral dose of 10 mpk in guinea pig; assay type: functional
T2 sequence (whole entry): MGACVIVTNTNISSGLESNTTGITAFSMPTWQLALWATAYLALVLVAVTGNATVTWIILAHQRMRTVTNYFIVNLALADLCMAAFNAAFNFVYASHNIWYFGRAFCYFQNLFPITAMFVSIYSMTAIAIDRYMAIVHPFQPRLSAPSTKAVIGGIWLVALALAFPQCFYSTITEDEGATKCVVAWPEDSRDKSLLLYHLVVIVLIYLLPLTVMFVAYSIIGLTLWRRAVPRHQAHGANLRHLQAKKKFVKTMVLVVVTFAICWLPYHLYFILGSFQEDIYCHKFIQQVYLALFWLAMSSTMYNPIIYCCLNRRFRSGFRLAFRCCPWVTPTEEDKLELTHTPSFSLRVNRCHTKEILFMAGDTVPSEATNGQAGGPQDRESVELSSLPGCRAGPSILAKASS

Substance-P receptor [3] = target: T3, Substance-P receptor (Homo sapiens, UniProt P25103); test: Binding affinity against recombinant human tachykinin receptor 1 in CHO cells using [3H]-Sar SP as a radioligand; assay type: cell-based
[4] = target: T4, Substance-K receptor (Homo sapiens) (UniProt P21452); test: as §1; assay type: cell-based; set-up: concentration or dose not given beside the values; settings: concentration not given here
T4 sequence (whole entry): T1 sequence (P21452 whole entry)

Substance-P receptor [5] = target: T3, Substance-P receptor; test: The compound was evaluated for the binding affinity against recombinant human Tachykinin receptor 1 in CHO cells using [3H]-Sar SP as a radioligand; assay type: cell-based; settings: concentration not given here

T3 sequence (P25103 whole entry): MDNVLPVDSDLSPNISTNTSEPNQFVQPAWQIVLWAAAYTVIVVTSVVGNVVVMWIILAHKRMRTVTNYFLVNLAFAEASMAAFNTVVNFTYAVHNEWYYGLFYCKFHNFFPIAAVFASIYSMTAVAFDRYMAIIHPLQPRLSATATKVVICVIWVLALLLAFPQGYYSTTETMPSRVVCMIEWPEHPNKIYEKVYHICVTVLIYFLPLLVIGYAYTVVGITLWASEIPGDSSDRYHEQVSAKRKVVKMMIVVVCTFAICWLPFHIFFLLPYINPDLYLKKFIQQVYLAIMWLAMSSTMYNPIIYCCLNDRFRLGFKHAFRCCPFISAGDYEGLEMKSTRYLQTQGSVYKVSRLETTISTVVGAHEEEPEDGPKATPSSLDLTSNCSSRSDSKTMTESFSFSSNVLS

| Compound | AUC [1] [µM·h] | Ki (Substance-K receptor) [nM] | inhibition [2] [%] | Ki (Substance-P receptor [3]) [nM] | inhibition [4] [%] | inhibition (Substance-P receptor [5]) [%] |
| --- | --- | --- | --- | --- | --- | --- |
| CN(C/C(=N\OCC(=N)NO)C(CCN1CCC(N2CCCCC2=O)CC1)c1ccc(Cl)c(Cl)c1)C(=O)c1cc(Cl)cc(Cl)c1 (stereo not drawn) | 3 | 0.7 | 94 | 0.7 |  |  |
| CN(C)CCO/N=C(\COCc1cc(C(F)(F)F)cc(C(F)(F)F)c1)C(CCN1CCC(O)(c2ccccc2)CC1)c1ccc(Cl)c(Cl)c1 (stereo not drawn) |  |  |  | 103 | 11 |  |
| CC(C)CO/N=C(\COCc1cc(C(F)(F)F)cc(C(F)(F)F)c1)C(CCN1CCC(O)(c2ccccc2)CC1)c1ccc(Cl)c(Cl)c1 (stereo not drawn) |  |  |  |  | 11 | 43 |
| CC(C)(C)O/N=C(\COCc1cc(C(F)(F)F)cc(C(F)(F)F)c1)C(CCN1CCC(O)(c2ccccc2)CC1)c1ccc(Cl)c(Cl)c1 (stereo not drawn) |  |  |  |  | 28 | 46 |
| CO/C=C(\COCc1cc(C(F)(F)F)cc(C(F)(F)F)c1)C(CCN1CCC(O)(c2ccccc2)CC1)c1ccc(Cl)c(Cl)c1 (stereo not drawn) |  |  |  | 33 | 35 |  |
| OC1(c2ccccc2)CCN(CCC(/C(COCc2cc(C(F)(F)F)cc(C(F)(F)F)c2)=N/Oc2ccccc2)c2ccc(Cl)c(Cl)c2)CC1 (stereo not drawn) |  |  |  |  | 23 | 32 |
| O=C(O)CO/N=C(\COCc1cc(C(F)(F)F)cc(C(F)(F)F)c1)C(CCN1CCC(O)(c2ccccc2)CC1)c1ccc(Cl)c(Cl)c1 (stereo not drawn) |  |  |  | 8 | 20 |  |
| CC/C=C(\COCc1cc(C(F)(F)F)cc(C(F)(F)F)c1)C(CCN1CCC(O)(c2ccccc2)CC1)c1ccc(Cl)c(Cl)c1 (stereo not drawn) |  |  |  | 57 | 28 |  |
